# Biological target: T1, NIK (Homo sapiens, UniProt Q99558)
# T1 construct: Both assays utilize a truncated form of NIK containing only the catalytic domain; made in house; host or cells: baculovirus expression system (insect cells implied)
# Experiment: homogenous time resolved fluorescence (HTRF) assay for NIK Ki measurement
# Assay type: biochemical
# Settings: truncated NIK (catalytic domain only), autophosphorylation; 10 nM enzyme; 20, 100, 200 or 500 μM ATP; room temperature, 2 hours; read-out: Ki activity in the homogenous time resolved fluorescence (HTRF) assay for NIK
# Procedure: Two formats of biochemical assays are implemented: (1) chemiluminescent (CL) assay for NIK IC50 determination; (2) homogenous time resolved fluorescence (HTRF) assay for NIK Ki measurement. […] The NIK proteins are purified with baculovirus expression system and further biotinylated with N-hydroxysuccinamide biotin ester (Sigma). […] The reaction mixtures are then immobilized on a Streptavidin-coated plate (Pierce). […] For the HTRF assay, 10 nM of enzyme are incubated with compounds in the presence of 20, 100, 200, or 500 μM of ATP in a buffer with 20 mM of Hepes pH7.5, 20 mM of MgCl2, 0.2% of Tween 20 and 1 mM of DTT at room temperature for 2 hours.
# T1 sequence (Q99558 400-655 limits assumed): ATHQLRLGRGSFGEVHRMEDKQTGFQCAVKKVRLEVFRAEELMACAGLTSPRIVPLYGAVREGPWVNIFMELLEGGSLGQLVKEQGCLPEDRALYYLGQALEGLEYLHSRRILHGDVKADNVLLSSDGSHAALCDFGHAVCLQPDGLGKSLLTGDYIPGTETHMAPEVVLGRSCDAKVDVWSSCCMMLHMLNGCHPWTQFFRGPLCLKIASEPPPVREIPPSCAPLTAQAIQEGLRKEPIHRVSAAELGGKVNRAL
row,SMILES,Ki
1,"COc1ccc(C#CC(C)(O)c2nccs2)cc1Nc1nc(N)ncc1Cl (stereo not drawn) [Example 143, 4-(3-((2-amino-5-chloro-4-pyrimidinyl)amino)-4-(methyloxy)phenyl)-2-(1,3-thiazol-2-yl)-3-butyn-2-ol]",< 1000 nM
2,"CC(O)(C#Cc1ccc2c(c1)N(c1ccncc1)CC2(C)C)c1ncco1 (stereo not drawn) [Example 307, 4-(3,3-Dimethyl-1-(4-pyridinyl)-2,3-dihydro-1H-indol-6-yl)-2-(1,3-oxazol-2-yl)-3-butyn-2-ol]",< 1000 nM
3,"CC1(C)CN(c2nc(N)nc3[nH]cnc23)c2cc(C#CC3(O)CCCC3)ccc21 [Example 75, 1-((1-(2-amino-9H-purin-6-yl)-3,3-dimethyl-2,3-dihydro-1H-indol-6-yl)ethynyl)cyclopentanol]",< 1000 nM
4,"CC(O)(C#Cc1ccc2ncc(-c3ccncn3)n2c1)c1nccs1 (stereo not drawn) [Example 302, 4-(3-(4-pyrimidinyl)imidazo[1,2-a]pyridin-6-yl)-2-(1,3-thiazol-2-yl)-3-butyn-2-ol]",< 1000 nM
5,"COCCN(C)C1CCn2c1c(-c1ccncn1)c1cc(C#CC(C)(O)c3nccs3)ccc12 (single isomer, unassigned) [Example 87, 4-((R*)-1-((2-methoxyethyl)(methyl)amino)-9-(pyrimidin-4-yl)-2,3-dihydro-1H-pyrrolo[1,2-a]indol-7-yl)-2-(thiazol-2-yl)but-3-yn-2-ol]",< 1000 nM
6,"CN1CC2(C1)CN(c1nc(N)ncc1Cl)c1cc(C#C[C@@](C)(O)c3nccs3)ccc12 (single isomer, unassigned) [Example 182b, (2R*)-4-(1′-(2-Amino-5-chloro-4-pyrimidinyl)-1-methyl-1′,2′-dihydrospiro[azetidine-3,3′-indol]-6′-yl)-2-(1,3-thiazol-2-yl)-3-butyn-2-ol]",< 1000 nM
7,"COCCOc1cnc(N)nc1-c1c[nH]c2ccc(C#CC3(O)CCOCC3)cc12 [Example 226, 4-((3-(2-Amino-5-(2-methoxyethoxy)-4-pyrimidinyl)-1H-indol-5-yl)ethynyl)tetrahydro-2H-pyran-4-ol]",1000 to 30000 nM
8,"Nc1ncc(Cl)c(-c2cn(CC(=O)N3CCOCC3)c3ccc(C#CC4(O)CCCC4)cc23)n1 [Example 128, 2-(3-(2-amino-5-chloropyrimidin-4-yl)-5-(2-(1-hydroxycyclopentyl)ethynyl)-1H-indol-1-yl)-1-morpholinoethanone]",< 1000 nM
9,"Nc1ncc(F)c(N2CCc3ccc(C#CC4(O)CCCC4)cc32)n1 [Example 68, 1-((1-(2-amino-5-fluoro-4-pyrimidinyl)-2,3-dihydro-1H-indol-6-yl)ethynyl)cyclopentanol]",< 1000 nM
10,"COCCOc1cnc(N)nc1-c1cn(C)c2ccc(C#CC3(O)CCCC3)cc12 [Example 233, 1-((3-(2-Amino-5-(2-methoxyethoxy)-4-pyrimidinyl)-1-methyl-1H-indol-5-yl)ethynyl)cyclopentanol]",< 1000 nM
11,"N#Cc1cnc(N)nc1-c1c[nH]c2ccc(C#CC3(O)CCCC3)cc12 [Example 108, 2-amino-4-(5-(2-(1-hydroxycyclopentyl)ethynyl)-1H-indol-3-yl)pyrimidine-5-carbonitrile]",< 1000 nM
12,"Cc1ccsc1C(C)(O)C#Cc1ccc2c(c1)N(c1ccnc(N)n1)CC2 (stereo not drawn) [Example 278, 4-(1-(2-Amino-4-pyrimidinyl)-2,3-dihydro-1H-indol-6-yl)-2-(3-methyl-2-thienyl)-3-butyn-2-ol]",< 1000 nM
13,"COCCOc1cnc(N)nc1-c1c[nH]c2c(F)cc(C#CC3(O)CCCC3)cc12 [Example 229, 1-((3-(2-Amino-5-(2-methoxyethoxy)-4-pyrimidinyl)-7-fluoro-1H-indol-5-yl)ethynyl)cyclopentanol]",< 1000 nM
14,"CC(C)(O)C#Cc1ccc2nc3c(n2c1)-c1nc(N)ncc1CCC3 [Example 250, 4-(2-Amino-6,7-dihydro-5H-pyrido[1″,2″:1′,2′]imidazo[4′,′:6,7]cyclohepta[1,2-d]pyrimidin-11-yl)-2-methyl-3-butyn-2-ol]",< 1000 nM
15,"Nc1ncc(F)c(N2CC3(CCOCC3)c3ccc(C#CC4(O)CCCC4)cc32)n1 [Example 206, 1-((1-(2-Amino-5-fluoro-4-pyrimidinyl)-1,2,2′,3′,5′,6′-hexahydrospiro[indole-3,4′-pyran]-6-yl)ethynyl)cyclopentanol]",< 1000 nM
16,"CC(O)(C#Cc1ccc2c(c1)N(c1ncncn1)CC2(C)C)c1nccs1 (stereo not drawn) [Example 38, 4-(3,3-dimethyl-1-(1,3,5-triazin-2-yl)-2,3-dihydro-1H-indol-6-yl)-2-(1,3-thiazol-2-yl)-3-butyn-2-ol]",< 1000 nM
17,"Nc1ncc(Cl)c(-c2cn(CCN3CCOCC3)c3ccc(C#CC4(O)CCCC4)cc23)n1 [Example 126, 1-(2-(3-(2-amino-5-chloropyrimidin-4-yl)-1-(2-morpholinoethyl)-1H-indol-5-yl)ethynyl)cyclopentanol]",< 1000 nM
18,"CC(O)(C#Cc1ccc2ccn(-c3ccncc3)c2c1)c1nccs1 (stereo not drawn) [Example 299, 4-(1-(4-Pyridinyl)-1H-indol-6-yl)-2-(1,3-thiazol-2-yl)-3-butyn-2-ol]",< 1000 nM
19,"CC(=O)Nc1cc(C#CC2(O)CCCC2)cc2c1CCN2c1nc(N)ncc1Cl [Example 19, N-(1-(2-amino-5-chloropyrimidin-4-yl)-6-(2-(1-hydroxycyclopentyl)ethynyl)indolin-4-yl)acetamide]",< 1000 nM
20,"COCCOc1ccc(C#C[C@@](C)(O)c2cc(C)on2)cc1Nc1nc(N)ncc1Cl (single isomer, unassigned) [Example 179]",< 1000 nM
21,"CC(O)(C#Cc1ccc2c(c1)N(c1ccncc1Cl)CC2(C)C)c1nccs1 (stereo not drawn) [Example 313, 4-(1-(3-Chloro-4-pyridinyl)-3,3-dimethyl-2,3-dihydro-1H-indol-6-yl)-2-(1,3-thiazol-2-yl)-3-butyn-2-ol]",1000 to 30000 nM
22,"CN1CC2(C1)CN(c1nc(N)ncc1Cl)c1cc(C#CC(C)(O)c3nccs3)ccc12 (single isomer, unassigned) [Example 182a, (2S*)-4-(1′-(2-Amino-5-chloro-4-pyrimidinyl)-1-methyl-1′,2′-dihydrospiro[azetidine-3,3′-indol]-6′-yl)-2-(1,3-thiazol-2-yl)-3-Butyn-2-ol]",1000 to 30000 nM
23,"CC(O)(C#Cc1cccc(N(CCN2CCOCC2)c2ccncn2)n1)c1nccs1 (stereo not drawn) [Example 175, 4-(6-((2-morpholinoethyl)(pyrimidin-4-yl)amino)pyridin-2-yl)-2-(thiazol-2-yl)but-3-yn-2-ol]",1000 to 30000 nM
24,"COCCOCCOc1cnc(N)nc1-c1c[nH]c2ccc(C#CC3(O)CCCC3)cc12 [Example 228, 1-((3-(2-Amino-5-(2-(2-methoxyethoxy)ethoxy)-4-pyrimidinyl)-1H-indol-5-yl)ethynyl)cyclopentanol]",< 1000 nM
25,"Cc1[nH]c2ccc(C#CC(C)(O)c3nccs3)cc2c1-c1ccncc1 (stereo not drawn) [Example 295, 4-(2-Methyl-3-(4-pyridinyl)-1H-indol-5-yl)-2-(1,3-thiazol-2-yl)-3-butyn-2-ol]",< 1000 nM
26,"COCCN(C)c1ccc(C#C[C@](C)(O)c2nccs2)cc1Nc1nc(N)ncc1Cl [Example 153, (S)-4-(3-(2-Amino-5-chloropyrimidin-4-ylamino)-4-((2-methoxyethyl)(methyl)-amino)phenyl)-2-(thiazol-2-yl)but-3-yn-2-ol]",1000 to 30000 nM
27,"CC(O)(C#Cc1ccc2c(c1)N(c1ccnc(N)n1)CC2)c1ccsc1 (stereo not drawn) [Example 274, 4-(1-(2-Amino-4-pyrimidinyl)-2,3-dihydro-1H-indol-6-yl)-2-(3-thienyl)-3-butyn-2-ol]",< 1000 nM

# — US20110086834A1, “ALKYNYL ALCOHOLS AS KINASE INHIBITORS” (AMGEN INC., priority 2008, published 2011)
